pEC50: −log10 of the molar value.
These compounds were tested against T1, Human GPR120 short form (Homo sapiens, UniProt Q5NUL3) (assay: Human GPR120 calcium flux assay (FLIPR), Procedure Calcium A). Conditions: HEK-293 cells expressing human GPR120 short form, 2500 cells/well; read-out: GPR120 Ca2+ Assay A EC50.
T1 construct: expressed in transfected cells
T1 sequence (Q5NUL3 1-361): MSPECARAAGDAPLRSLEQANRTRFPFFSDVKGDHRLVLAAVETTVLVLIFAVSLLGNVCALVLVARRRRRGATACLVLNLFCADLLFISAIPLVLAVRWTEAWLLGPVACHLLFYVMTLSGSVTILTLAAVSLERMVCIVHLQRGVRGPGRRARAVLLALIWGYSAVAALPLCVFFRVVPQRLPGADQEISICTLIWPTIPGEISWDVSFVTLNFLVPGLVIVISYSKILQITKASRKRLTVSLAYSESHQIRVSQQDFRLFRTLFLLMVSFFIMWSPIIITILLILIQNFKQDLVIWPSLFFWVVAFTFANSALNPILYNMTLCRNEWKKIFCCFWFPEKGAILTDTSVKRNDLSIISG
Assay type: cell-based
From the text: This in vitro assay serves to assess test compound agonist activity against the short splice variant (SVS with Accession number NM_001195755.1 confirmed by sequencing data) of the GPR120 receptor. The Human Short splice variant #2 (NM_001195755.1) is missing an in-frame coding exon compared to variant 1 (the Human Long splice variant NM_181745.3), resulting in a shorter isoform (GPR120-S) lacking a 16 aa protein segment compared to isoform GPR120-L. The assay platform utilizes HEK-293 cells stably transfected to express the Human GPR120 short form. These cells are first loaded with the Ca^+2 sensitive dye, Fluo-4 NW. Upon stimulation, intracellular released Ca^+2 can bind to the dye and alter its fluorescence intensity. This increase in fluorescence signal, and thus the flux in intracellular [Ca^2+], is detected and quantitated by fluorescence imaging using a FLIPR reader. The effect of the agonist is measured as a function of concentration and used to calculate an EC50 based upon a response curve.
In this procedure 2500 cells/well were employed.
A Human GPR120 clone (Genbank accession number NM_001195755.1) was placed into the pcDNA3.1 mammalian expression vector carrying the neomycin resistance gene. A stable mammalian cell was generated by placing the above clone into a HEK293 background. Clonal cells responding to long chain fatty acids had expression levels of GPR120 confirmed by RT-qPCR. Human HEK-GPR120 cells were cultured in Dulbecco's Modified Eagle's Medium (DMEM)/F12 medium supplemented with 10% fetal bovine serum (FBS), 1% L-Glutamine and 1% penicillin/streptomycin and 0.5 mg/ml G-418. Cells were split 2 times a week to keep the cells in the log-phase growth.
In preparation for the assay, HEK cells stably transfected with Human GPR120 (2.5K cells per well in 25 uL growth medium) were seeded into 384-well plates and then incubated overnight (37° C., 5% CO2). The next day, the media was changed to 20 μL assay buffer and the cell starved for 1 h at 37° C. The dye loading solution (2× dye) was prepared using 10 mL assay buffer, 100 μL of 250 mM probenecid, 1 bottle of Component A, and 20 μl of dye in DMSO. Twenty μL of the 2× dye loading buffer was then added to each well. The plates were incubated at 37° C. for 30 min, then at room temperature for an additional 15 minutes, before performing the assay on FLIPR. Test compounds were prepared in assay buffer (2 uL of cpd+198 uL assay buffer, final DMSO in assay plate is 0.2%) at the desired concentration, more particularly at 100, 50, 25, 12.5, 6.25, 3.125, 1.562, 0.781, 0.391, 0.195, 0.098, 0.049, 0.024 and 0.012 μM.
The assay was performed on a FLIPR plate reader using the following parameters. Baseline was read for 10 seconds at 1 sec intervals. The program was set to transfer 10 μL of ligand from compound plate to cell plate after baseline reading. Aspiration was executed at: 10 μL/sec speed, 4.6 μL height; Dispensing was executed at: 30 μL/sec speed, 45 μL height. After compound addition, each well was read for 300 sec, with measurements collected at 1 sec intervals.
The kinetic data from the FLIPR was based upon a 5 minute window for data collection. The fluorescence of each sample well was used for individual calculations of a normalized RFU value, which was defined as maximum response minus the minimum response. The normalized fluorescence reading (RFU) was calculated as follows: RFU=Fmax−Fmin The data were fitted to a sigmoidal dose-response curve with a variable Hill slope (<2) using nonlinear regression with GraphPad Prism 5.0 to calculate the EC50 values. The Fitting Equation was: Y=Bottom+(Top−Bottom)/(1+10^((Log EC50−X)*HillSlope)), where X is the log of the concentration and Y is the response.

pEC50	Compound
7.05	Cc1c(CCC(=O)O)ccc(OCc2sc(Cl)cc2-c2ccc(Cl)cc2)c1C [Cpd 6, 3-(4-[[5-chloro-3-(4-chlorophenyl)thiophen-2-yl]methoxy]-2,3-dimethylphenyl) propanoic acid]
6.91	O=C(O)CCc1cc(F)c(OCc2sc(Cl)cc2-c2ccc(Cl)cc2)c(F)c1 [Cpd 10, 3-(4-[[5-chloro-3-(4-chlorophenyl)thiophen-2-yl]methoxy]-3,5-difluorophenyl)propanoic acid]
6.58	Cc1c(CCCO)ccc(OCc2sc(Cl)cc2-c2ccc(Cl)cc2)c1C [Cpd 15, 3-(4-[[5-chloro-3-(4-chlorophenyl)thiophen-2-yl]methoxy]-2,3-dimethylphenyl)propan-1-ol]
6.39	CCc1ccc(-c2cc(F)sc2COc2ccc(CCCO)c(F)c2F)cc1 [Cpd 17, 3-(4-[[3-(4-ethylphenyl)-5-fluorothiophen-2-yl]methoxy]-2,3-difluorophenyl)propan-1-ol]
6.29	OCCCc1cc(F)c(OCc2sc(F)cc2-c2ccc(Cl)cc2)c(F)c1 [Cpd 18, 3-(4-[[3-(4-chlorophenyl)-5-fluorothiophen-2-yl]methoxy]-3,5-difluorophenyl)propan-1-ol]
6.10	CCc1ccc(-c2cc(C(F)(F)F)sc2COc2ccc(CCC(=O)O)c(F)c2F)cc1 [Cpd 21, 3-(4-((3-(4-ethylphenyl)-5-(trifluoromethyl)thiophen-2-yl)methoxy)-2,3-difluorophenyl)propanoic acid]
6.03	CCc1ccc(-c2cc(C(F)(F)F)sc2COc2c(F)cc(CCC(=O)O)cc2F)cc1 [Cpd 22, 3-(4-((3-(4-ethylphenyl)-5-(trifluoromethyl)thiophen-2-yl)methoxy)-3,5-difluorophenyl)propanoic acid]
7.05	Cc1ccc(-c2csc(C(F)(F)F)c2COc2c(F)cc(CCCO)cc2F)cn1 [Cpd 36, 3-(3,5-difluoro-4-((4-(6-methylpyridin-3-yl)-2-(trifluoromethyl)thiophen-3-yl)methoxy)phenyl)propan-1-61]
6.78	O=C(O)CCc1ccc(OCc2c(-c3ccc(Cl)cc3)csc2C(F)(F)F)c(F)c1F [Cpd 47, 3-(4-((4-(4-chlorophenyl)-2-(trifluoromethyl)thiophen-3-yl)methoxy)-2,3-difluorophenyl)propanoic acid]
6.70	CCc1ccc(-c2csc(C(F)(F)F)c2COc2ccc(CCC(=O)O)c(C)c2C)cc1 [Cpd 54, 3-(4-((4-(4-ethylphenyl)-2-(trifluoromethyl)thiophen-3-yl)methoxy)-2,3-dimethylphenyl)propanoic acid]
6.56	Cc1c(CCC(=O)O)ccc(OCc2c(-c3ccc(Cl)cc3)csc2C(F)(F)F)c1C [Cpd 57, 3-(4-((4-(4-chlorophenyl)-2-(trifluoromethyl)thiophen-3-yl)methoxy)-2,3-dimethylphenyl)propanoic acid]
6.46	Cc1c(CCC(=O)O)ccc(OCc2c(-c3ccc(Cl)cc3F)csc2C(F)(F)F)c1C [Cpd 59, 3-(4-((4-(4-chloro-2-fluorophenyl)-2-(trifluoromethyl)thiophen-3-yl)methoxy)-2,3-dimethylphenyl)propanoic acid]
6.29	COc1ccc(-c2csc(C(F)(F)F)c2COc2ccc(CCC(=O)O)c(C)c2C)cc1 [Cpd 60, 3-(4-((4-(4-methoxyphenyl)-2-(trifluoromethyl)thiophen-3-yl)methoxy)-2,3-dimethylphenyl)propanoic acid]
6.25	CCc1ccc(-c2sc(C)c(C(F)(F)F)c2COc2ccc(CCC(=O)O)c(C)c2C)cc1 [Cpd 61, 3-(4-[[2-(4-ethylphenyl)-5-methyl-4-(trifluoromethyl)thiophen-3-yl]methoxy]-2,3-dimethylphenyl) propanoic acid]
6.13	Cc1ccc(-c2csc(C(F)(F)F)c2COc2c(F)cc(CCC(=O)O)cc2F)cn1 [Cpd 62, 3-(3,5-difluoro-4-((4-(6-methylpyridin-3-yl)-2-(trifluoromethyl)thiophen-3-yl)methoxy)phenyl)propanoic acid]
7.55	O=C(O)CCc1ccc(OCc2c(-c3ccc(Cl)cc3)nsc2C(F)(F)F)c(F)c1 [Cpd 68, 3-(4-[[3-(4-chlorophenyl)-5-(trifluoromethyl)-1,2-thiazol-4-yl]methoxy]-3-fluorophenyl)propanoic acid]
7.15	CCc1ccc(-c2nsc(C(F)(F)F)c2COc2ccc(CCC(=O)O)c3sccc23)cc1 [Cpd 92, 3-(4-[[3-(4-ethylphenyl)-5-(trifluoromethyl)-1,2-thiazol-4-yl]methoxy]-1-benzothiophen-7-yl)propanoic acid]
7.10	CCc1ccc(-c2nsc(C(F)(F)F)c2COc2ccc(CCC(=O)O)c3c2CCC3)cc1 [Cpd 103, 3-(7-[[3-(4-ethylphenyl)-5-(trifluoromethyl)-1,2-thiazol-4-yl]methoxy]-2,3-dihydro-1H-inden-4-yl)propanoic acid]
7.00	Cc1c(CCC(=O)O)ccc(OCc2c(Cl)nsc2-c2ccc(C(F)(F)F)cc2)c1C [Cpd 112, 3-[4-([3-chloro-5-[4-(trifluoromethyl)phenyl]-1,2-thiazol-4-yl]methoxy)-2,3-dimethylphenyl]propanoic acid]
6.94	CCc1ccc(-c2snc(Cl)c2COc2c(F)cc(CCC(=O)O)cc2F)cc1 [Cpd 124, 3-(4-[[3-chloro-5-(4-ethylphenyl)-1,2-thiazol-4-yl]methoxy]-3,5-difluorophenyl)propanoic acid]
6.92	Cc1cc(OCc2c(-c3ccc(Cl)cc3)nsc2C(F)(F)F)c(F)cc1CCC(=O)O [Cpd 125, 3-(4-((3-(4-chlorophenyl)-5-(trifluoromethyl)isothiazol-4-yl)methoxy)-5-fluoro-2-methylphenyl)propanoic acid]
6.90	CCc1ccc(-c2nsc(C(F)(F)F)c2COc2ccc(CCC(=O)O)c3ccccc23)cc1 [Cpd 130, 3-(4-[[3-(4-ethylphenyl)-5-(trifluoromethyl)-1,2-thiazol-4-yl]methoxy]naphthalen-1-yl)propanoic acid]
6.89	CC(=O)c1ccc(-c2nsc(C(F)(F)F)c2COc2c(F)cc(CCC(=O)O)cc2F)cc1 [Cpd 131, 3-(4-[[3-(4-acetylphenyl)-5-(trifluoromethyl)-1,2-thiazol-4-yl]methoxy]-3,5-difluorophenyl) propanoic acid]
6.80	COc1cc(-c2nsc(C(F)(F)F)c2COc2ccc(CCC(=O)O)c(C)c2C)ccc1Cl [Cpd 144, 3-(4-((3-(4-chloro-3-methoxyphenyl)-5-(trifluoromethyl)isothiazol-4-yl)methoxy)-2,3-dimethylphenyl)propanoic acid]
6.78	Cc1c(CCC(=O)O)ccc(OCc2c(-c3ccc(C(C)F)cc3)nsc2C(F)(F)F)c1C (centres unmarked) [Cpd 146, 3-[4-([3-[4-(1-fluoroethyl)phenyl]-5-(trifluoromethyl)-1,2-thiazol-4-yl]methoxy)-2,3-dimethylphenyl]propanoic acid]
6.78	CCc1ccc(-c2nsc(C3CC3)c2COc2ccc(CCC(=O)O)c(C)c2C)cc1 [Cpd 149, 3-(4-[[5-cyclopropyl-3-(4-ethylphenyl)-1,2-thiazol-4-yl]methoxy]-2,3-dimethylphenyl)propanoic acid]
